Experimental data reported in US9963443B2, “Radiolabeled compounds” (TAKEDA PHARMACEUTICAL COMPANY LIMITED, priority 2014, dated 2018).

Assays:
CH24H = CH24H (Macaca mulatta, UniProt I2CYF7); assay: PET measurements and image analysis after intravenous bolus of radiotracer; assay type: in vivo, rhesus macaque (macaca mulatta); details: for BPND in the putamen: Logan graphical analysis, cerebellum as reference region, t* 40 min
Procedure: Animals were fasted for 18-24 h before the study. At 2 h prior to injection of the radiopharmaceutical, the animals were anesthetized with intramuscular ketamine (10 mg/kg) and glycopyrrolate (0.01 mg/kg), transferred to the PET camera, and immediately intubated with an endrotracheal tube for continued anesthesia with 2.75% isoflurane administered through a rebreathing circuit. Body temperature was kept at 37° C. using a heated water blanket. Vital signs, including heart rate, blood pressure, respiration rate, oxygen saturation and body temperature, were monitored every 3 to 20 min during the study.
The dynamic series were subsequently reconstructed using filtered back projection with corrections for random, scatter, and attenuation provided by the camera manufacturer.
Four samples of 5 mL were drawn at 3, 10, 30 and 60 min post injection to evaluate the stability in blood as well as the metabolite analysis method and HPLC conditions.
Reconstructed PET image data volumes were transferred to the image processing PMOD software package (PMOD Technologies, Zurich, Switzerland) where the images were realigned with the monkey's individual MRI to apply a volume of interest (VOI) template comprising the following regions: whole brain, caudate nucleus, putamen, globus pallidus, frontal cortex, temporal cortex, occipital cortex, parietal cortex, anterior cingulate cortex, posterior cingulated cortex, hippocampus, thalamus, and cerebellum. Average activity concentration (kBq/cc) within each VOI was determined and time activity curves (TAC) were generated for each study, depicting the regional brain activity concentration over time and reflecting total uptake (specific plus non displaceable). Time activity curves were also expressed in SUV (Standard Uptake Value) units (g/mL) by normalizing by the weight of the animal and the injected dose. Logan graphical analysis with reference region input function was applied to the regional time activity curves with t* fixed at 40 min to obtain an estimate of BPND (Binding Potential relative to the Non-Displaceable compartment), where the cerebellum was used as the reference region.

human CH24H = human CH24H (Homo sapiens (Human), UniProt Q9Y6A2); assay: Measurement of CH24H inhibitory activity (24-HC produced from [14C]cholesterol by human CH24H lysate); assay type: biochemical; details: [14C]cholesterol 15 μM, 37° C. for 5 hr
Procedure: The expression of human CH24H was performed using FreeStyle 293 Expression System (Invitrogen). […] After transfection, the cells were cultured at 37° C., 8% CO2 with shaking at 125 rpm for 2 days. The cells were collected by centrifugation, and suspended in a suspension buffer (100 mM potassium phosphate (pH 7.4), 0.1 mM EDTA, 1 mM DTT, 20% Glycerol). The suspended product was disrupted by a polytron homogenizer (manufactured by Kinematica), and centrifuged at 9000×g for 10 min, and the supernatant was collected. The collected supernatant was cryopreserved (−80° C.) as a human CH24H lysate standard product.
For the measurement of CH24H inhibitory activity, using the human CH24H lysate prepared in Experimental Example 2, the amount of 24-HC produced from cholesterol by catalytic activity of CH24H was measured in the presence of a test compound, and compared with that measured in the absence of the test compound. That is, a test compound solution at various concentrations was mixed with a reaction buffer (50 mM potassium phosphate containing 0.1% BSA and Complete, EDTA-free, pH 7.4) and human CH24H lysate. Then, [^14C] cholesterol (53 mCi/mmol specific activity, 15 μM) was added, and CH24H reaction was performed at 37° C. for 5 hr. After completion of the reaction, a quenching solution consisting of chloroform/methanol/distilled water (2:2:1 v/v) was added, and the resulting 24-HC was extracted by shaking. The extract was applied to silica gel thin layer chromatography (ethyl acetate:toluene=4:6), and the obtained ^14C-24HC fraction was measured with BAS2500 (Fujifilm Corporation).
The inhibitory rate (%) and IC50 values (μM) were calculated from the ratio of radioactivity in the presence of a test compound relative to the radioactivity in the absence of the test compound.

[1] = system: other CNS related human receptors and enzymes; assay: Selectivity assay over other CNS related human receptors and enzymes (Eurofins Panlabs, Tables 3-1 and 3-2); assay type: binding; details: at 10 μM
Procedure: The CH24H IC50 is a measure of the ability of the test compound to inhibit the action of the CH24H enzyme. To determine the selectivity of the test compounds for CH24H, inhibitory activities of the compound were determined for other CNS (central nerve system) related receptors and enzymes such as Adenosine A2B, Adrenergic β1, Adrenergic β2, Adrenergic β3, Angiotensin AT2, Bradykinin B1, Cannabinoid CB1, Carbonic Anhydrase II, Acetyl Cholinesterase, Cyclooxygenase (COX-1), Cyclooxygenase (COX-2), Dopamine D1, Dopamine D2L, Dopamine D3, Dopamine D4.2, GABA B1A, GABA B1B, Histamine H1, Histamine H2, Imidazoline I2 (Central), MAO A, MAO B, Muscarinic M1, Muscarinic M2, Muscarinic M3, Opiate κ (OP2, KOP), Opiate μ (OP3; MOP), Metalloproteinase, Phosphodiesterase 4 (PDE4), Phosphodiesterase 5 (PDE5), 5-HT2B, NK2, NK3, Dopamine transporter, Norepinephrine transporter, Serotonin transporter (SERT), Vasopressin V1A. […] Such a result is indicative of the selectivity of the compounds in use as radiotracers for quantitative imaging of CH24H. In general, one of ordinary skill in the art would appreciate that a substance is considered to be effectively used for quantitative imaging of CH24H if it has an activity in inhibiting other CNS related receptors and enzymes with less than 50% at 10 μM. […]

Sequence of human CH24H (Q9Y6A2 whole entry): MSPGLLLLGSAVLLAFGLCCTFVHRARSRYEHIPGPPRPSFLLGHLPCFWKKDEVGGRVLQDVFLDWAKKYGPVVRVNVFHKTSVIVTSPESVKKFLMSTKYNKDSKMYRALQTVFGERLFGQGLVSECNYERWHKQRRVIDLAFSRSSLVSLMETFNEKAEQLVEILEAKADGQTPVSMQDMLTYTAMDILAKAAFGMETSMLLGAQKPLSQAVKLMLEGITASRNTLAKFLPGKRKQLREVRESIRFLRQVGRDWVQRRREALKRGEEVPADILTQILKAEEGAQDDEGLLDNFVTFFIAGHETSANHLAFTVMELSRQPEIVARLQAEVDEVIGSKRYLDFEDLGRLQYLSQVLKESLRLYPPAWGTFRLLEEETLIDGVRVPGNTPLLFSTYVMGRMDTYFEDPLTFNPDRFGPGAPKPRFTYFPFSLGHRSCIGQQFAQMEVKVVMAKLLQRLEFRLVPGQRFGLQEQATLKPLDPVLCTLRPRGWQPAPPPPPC
Sequence of CH24H (I2CYF7 1-500): as the sequence (Q9Y6A2 whole entry) above, with V87I, G417S, A494T counted along it

| IC50 (human CH24H) [nM] | Compound | other results |
| --- | --- | --- |
| 5.4 | CN(C(=O)C1CCN(c2cncnc2-c2ccc(F)cc2)CC1)C1CC1 [Reference Example 1, N-cyclopropyl-1-(4-(4-fluorophenyl)pyrimidin-5-yl)-N-methylpiperidine-4-carboxamide] |  |
| 7.4 | CN(C(=O)C1CCN(c2cnccc2-n2cc(Cl)cn2)CC1)C1CCOCC1 [Reference Example 3, 1-(4-(4-chloro-1H-pyrazol-1-yl)pyridin-3-yl)-N-methyl-N-(tetrahydro-2H-pyran-4-yl)piperidine-4-carboxamide] |  |
| 16 | O=C(C1CCN(c2cncnc2-c2ccc(F)cc2)CC1)N1CC[C@@H](F)C1 [Reference Example 11, (1-(4-(4-fluorophenyl)pyrimidin-5-yl)piperidin-4-yl) ((3R)-3-fluoropyrrolidin-1-yl)methanone] |  |
| 17 | CN(C(=O)C1CCN(c2cnccc2-n2cc(Cl)cn2)CC1)[C@@H]1CCOC1 [Reference Example 14, 1-(4-(4-chloro-1H-pyrazol-1-yl)pyridin-3-yl)-N-methyl-N-((3R)-tetrahydrofuran-3-yl)piperidine-4-carboxamide] |  |

The remaining lines, values behind:

| Compound | IC50 (human CH24H) [nM] | other results |
| --- | --- | --- |
| O=C(C1CCN(c2cncnc2-c2ccc(F)cc2)CC1)N1CC([18F])C1 [Example 2, (3-[^18F]fluoroazetidin-1-yl) (1-(4-(4-fluorophenyl)pyrimidin-5-yl)piperidin-4-yl)methanone] |  | BPND in the putamen (CH24H): 2.6; brain kinetics (CH24H; rhesus monkey, in vivo): favorable kinetics with a significant washout following the maximum uptake; regional brain uptake (distribution) (CH24H; rhesus monkey, in vivo): highest uptake in the putamen and caudate; time of maximum SUV in the putamen (CH24H; rhesus monkey, in vivo, iv): ~30 min post injection; whole-brain maximum % ID (CH24H; rhesus monkey, in vivo, iv): 2.3% |
| O=C(C1CCN(c2cncnc2-c2ccc(F)cc2)CC1)N1CC(F)C1 [Reference Example 2, (3-fluoroazetidin-1-yl) (1-(4-(4-fluorophenyl)pyrimidin-5-yl)piperidin-4-yl)methanone] | 8.8 | inhibition in the assays listed in Tables 3-1 and 3-2 [1]: less than 50% |
| Cc1cnn(-c2ccncc2N2CCC(C(=O)N3CC(F)C3)CC2)c1 [Reference Example 4, (3-fluoroazetidin-1-yl) (1-(4-(4-methyl-1H-pyrazol-1-yl)pyridin-3-yl)piperidin-4-yl)methanone] | 7.1 |  |
| O=C(C1CCN(c2cnccc2-n2cc(Cl)cn2)CC1)N1CC(F)C1 [Reference Example 5, (1-(4-(4-chloro-1H-pyrazol-1-yl)pyridin-3-yl)piperidin-4-yl) (3-fluoroazetidin-1-yl)methanone] | 19 |  |
| O=C(C1CCN(c2cncnc2-c2ccc(F)cc2)CC1)N1CC[C@H](F)C1 [Reference Example 10, (1-(4-(4-fluorophenyl)pyrimidin-5-yl)piperidin-4-yl) ((3S)-3-fluoropyrrolidin-1-yl)methanone] | 20 |  |
| CN(C(=O)C1CCN(c2cnccc2-n2cc(Cl)cn2)CC1)[C@H]1CCOC1 [Reference Example 13, 1-(4-(4-chloro-1H-pyrazol-1-yl)pyridin-3-yl)-N-methyl-N-((3S)-tetrahydrofuran-3-yl)piperidine-4-carboxamide] | 20 |  |
| O=C(C1CCN(c2cnccc2-n2cc(Br)cn2)CC1)N1CC(F)C1 [Reference Example 20, (1-(4-(4-bromo-1H-pyrazol-1-yl)pyridin-3-yl)piperidin-4-yl) (3-fluoroazetidin-1-yl)methanone] | 6.9 |  |
| Cc1cnc(-c2ccncc2N2CCC(C(=O)N3CC(F)C3)CC2)s1 [Reference Example 21, (3-fluoroazetidin-1-yl) (1-(4-(5-methyl-1,3-thiazol-2-yl)pyridin-3-yl)piperidin-4-yl)methanone] | 4.9 |  |
| Cc1cnn(-c2ccncc2N2CCN(C(=O)N(CCF)Cc3ccc(F)cc3)CC2)c1 [Reference Example 23, N-(4-fluorobenzyl)-N-(2-fluoroethyl)-4-(4-(4-methyl-1H-pyrazol-1-yl)pyridin-3-yl)piperazine-1-carboxamide] | 17 |  |
| O=C(C1CCN(c2cnccc2-n2cc(C3CC3)cn2)CC1)N1CC(F)C1 [Reference Example 26, (1-(4-(4-cyclopropyl-1H-pyrazol-1-yl)pyridin-3-yl)piperidin-4-yl) (3-fluoroazetidin-1-yl)methanone] | 10 |  |
| (1-(4-(4-chloro-1H-pyrazol-1-yl)pyridin-3-yl)piperidin-4-yl) (3-[^18F]fluoroazetidin-1-yl)methanone [Example 1] |  | BPND in the putamen (CH24H): 2.3; brain kinetics (CH24H; female rhesus macaque, PET time activity curves): favorable kinetics with a significant washout following the maximum uptake; regional brain uptake (distribution) (CH24H; female rhesus macaque, PET time activity curves (FIG. 1, FIG. 2)): highest uptake in the putamen and caudate; whole-brain maximum % ID (CH24H; female rhesus macaque, i.v. bolus, PET): 1.6% |
